Columns and labels:
[1] = xn = mol fraction of the nth substance listed; details: 101 kPa, Liquid; for speed of sound: Sing-around technique in a fixed-path interferometer
[2] = excess molar enthalpy (molar enthalpy of mixing); xn = mol fraction of the nth substance listed; details: 101 kPa, Liquid

C=C1CCC2CC1C2(C)C (stereo not drawn) [β-pinene] + CCCC(C)O
Details	excess molar enthalpy [kcal/mol]	mass density [kg/m3]	speed of sound [m/s]
[1], 283.15 K, x1 = 0.104	–	824.99	1291.4
[1], 283.15 K, x1 = 0.2047	–	832.2	1295.3
[1], 283.15 K, x1 = 0.3071	–	839.03	1299.3
[1], 283.15 K, x1 = 0.3997	–	844.95	1303.5
[1], 283.15 K, x1 = 0.4964	–	850.86	1308.8
[1], 283.15 K, x1 = 0.6058	–	857.28	1316.2
[1], 283.15 K, x1 = 0.6929	–	862.26	1323.1
[1], 283.15 K, x1 = 0.8016	–	868.23	1332.7
[1], 283.15 K, x1 = 0.904	–	873.67	1342.4
[1], 283.15 K, x1 = 0.9454	–	875.83	1346.8
[1], 298.15 K, x1 = 0.1056	–	812.89	1235
[1], 298.15 K, x1 = 0.2051	–	819.88	1238.6
[1], 298.15 K, x1 = 0.3052	–	826.49	1241.5
[1], 298.15 K, x1 = 0.4038	–	832.72	1245.8
[1], 298.15 K, x1 = 0.5068	–	838.99	1251.5
[1], 298.15 K, x1 = 0.601	–	844.56	1257.8
[1], 298.15 K, x1 = 0.695	–	849.94	1265
[1], 298.15 K, x1 = 0.8014	–	855.84	1273.7
[1], 298.15 K, x1 = 0.9001	–	861.15	1282.7
[1], 298.15 K, x1 = 0.9499	–	863.9	1288.2
[1], 313.15 K, x1 = 0.1069	–	800.02	1170.1
[1], 313.15 K, x1 = 0.1981	–	806.39	1173.2
[1], 313.15 K, x1 = 0.3039	–	813.43	1177.7
[1], 313.15 K, x1 = 0.4034	–	819.78	1182.2
[1], 313.15 K, x1 = 0.5067	–	826.14	1188.2
[1], 313.15 K, x1 = 0.6023	–	831.84	1195.1
[1], 313.15 K, x1 = 0.7005	–	837.55	1203.4
[1], 313.15 K, x1 = 0.7975	–	843.07	1212.8
[1], 313.15 K, x1 = 0.8956	–	–	1223.2
[1], 313.15 K, x1 = 0.8957	–	848.53	–
[1], 313.15 K, x1 = 0.9497	–	851.6	1229.6
[2], 283.15 K, x1 = 0.049	0.0299	–	–
[2], 283.15 K, x1 = 0.1	0.0631	–	–
[2], 283.15 K, x1 = 0.193	0.117	–	–
[2], 283.15 K, x1 = 0.294	0.163	–	–
[2], 283.15 K, x1 = 0.395	0.194	–	–
[2], 283.15 K, x1 = 0.495	0.21	–	–
[2], 283.15 K, x1 = 0.591	0.21	–	–
[2], 283.15 K, x1 = 0.695	0.194	–	–
[2], 283.15 K, x1 = 0.794	0.168	–	–
[2], 283.15 K, x1 = 0.9	0.123	–	–
[2], 283.15 K, x1 = 0.942	0.092	–	–
[2], 283.15 K, x1 = 0.971	0.066	–	–
[2], 283.15 K, x1 = 0.985	0.0356	–	–
[2], 298.15 K, x1 = 0.049	0.0382	–	–
[2], 298.15 K, x1 = 0.1	0.0803	–	–
[2], 298.15 K, x1 = 0.193	0.149	–	–
[2], 298.15 K, x1 = 0.294	0.206	–	–
[2], 298.15 K, x1 = 0.395	0.243	–	–
[2], 298.15 K, x1 = 0.495	0.263	–	–
[2], 298.15 K, x1 = 0.591	0.263	–	–
[2], 298.15 K, x1 = 0.695	0.253	–	–
[2], 298.15 K, x1 = 0.794	0.224	–	–
[2], 298.15 K, x1 = 0.9	0.172	–	–
[2], 298.15 K, x1 = 0.942	0.124	–	–
[2], 298.15 K, x1 = 0.971	0.0875	–	–
[2], 298.15 K, x1 = 0.985	0.0452	–	–
[2], 313.15 K, x1 = 0.049	0.05	–	–
[2], 313.15 K, x1 = 0.1	0.0987	–	–
[2], 313.15 K, x1 = 0.193	0.179	–	–
[2], 313.15 K, x1 = 0.294	0.245	–	–
[2], 313.15 K, x1 = 0.395	0.289	–	–
[2], 313.15 K, x1 = 0.495	0.315	–	–
[2], 313.15 K, x1 = 0.591	0.321	–	–
[2], 313.15 K, x1 = 0.695	0.313	–	–
[2], 313.15 K, x1 = 0.794	0.286	–	–
[2], 313.15 K, x1 = 0.9	0.21	–	–
[2], 313.15 K, x1 = 0.942	0.153	–	–
[2], 313.15 K, x1 = 0.971	0.0968	–	–
[2], 313.15 K, x1 = 0.985	0.0442	–	–

C=C1CCC2CC1C2(C)C (stereo not drawn) [β-pinene] + CCCCCO
Details	excess molar enthalpy [kcal/mol]	mass density [kg/m3]	speed of sound [m/s]
[1], 283.15 K, x1 = 0.1075	–	830.13	1327.7
[1], 283.15 K, x1 = 0.2016	–	836.79	1328.9
[1], 283.15 K, x1 = 0.3016	–	843.32	1330.6
[1], 283.15 K, x1 = 0.4028	–	849.41	1331.6
[1], 283.15 K, x1 = 0.5026	–	854.98	1333.2
[1], 283.15 K, x1 = 0.6034	–	860.24	1335.1
[1], 283.15 K, x1 = 0.7014	–	865.12	1337.8
[1], 283.15 K, x1 = 0.8036	–	869.97	1341.4
[1], 283.15 K, x1 = 0.9009	–	874.43	1346.2
[1], 283.15 K, x1 = 0.9481	–	876.59	1349.3
[1], 298.15 K, x1 = 0.1004	–	–	1275
[1], 298.15 K, x1 = 0.1057	–	819.15	–
[1], 298.15 K, x1 = 0.2012	–	825.47	–
[1], 298.15 K, x1 = 0.2024	–	–	1275.5
[1], 298.15 K, x1 = 0.3032	–	831.91	–
[1], 298.15 K, x1 = 0.3081	–	–	1275.8
[1], 298.15 K, x1 = 0.3975	–	–	1275.9
[1], 298.15 K, x1 = 0.4023	–	837.67	–
[1], 298.15 K, x1 = 0.4982	–	–	1276.4
[1], 298.15 K, x1 = 0.4984	–	842.91	–
[1], 298.15 K, x1 = 0.6021	–	848.24	1277.9
[1], 298.15 K, x1 = 0.6945	–	852.74	–
[1], 298.15 K, x1 = 0.696	–	–	1279.6
[1], 298.15 K, x1 = 0.7994	–	857.65	–
[1], 298.15 K, x1 = 0.8066	–	–	1283
[1], 298.15 K, x1 = 0.8952	–	–	1286.9
[1], 298.15 K, x1 = 0.8997	–	862.25	–
[1], 298.15 K, x1 = 0.9465	–	864.37	–
[1], 298.15 K, x1 = 0.9528	–	–	1291
[1], 313.15 K, x1 = 0.1007	–	807.27	–
[1], 313.15 K, x1 = 0.1023	–	–	1223.7
[1], 313.15 K, x1 = 0.2007	–	–	1221.7
[1], 313.15 K, x1 = 0.2048	–	814.01	–
[1], 313.15 K, x1 = 0.3027	–	819.95	–
[1], 313.15 K, x1 = 0.3049	–	–	1220.9
[1], 313.15 K, x1 = 0.4019	–	825.6	1220.4
[1], 313.15 K, x1 = 0.5024	–	830.92	1220.6
[1], 313.15 K, x1 = 0.5976	–	835.75	1221.2
[1], 313.15 K, x1 = 0.6977	–	840.54	1222.1
[1], 313.15 K, x1 = 0.7991	–	845.26	1224.3
[1], 313.15 K, x1 = 0.9066	–	850.18	1228.6
[1], 313.15 K, x1 = 0.9468	–	852.1	1231
[2], 283.15 K, x1 = 0.049	0.00669	–	–
[2], 283.15 K, x1 = 0.096	0.0155	–	–
[2], 283.15 K, x1 = 0.192	0.0325	–	–
[2], 283.15 K, x1 = 0.286	0.05	–	–
[2], 283.15 K, x1 = 0.388	0.0645	–	–
[2], 283.15 K, x1 = 0.488	0.0753	–	–
[2], 283.15 K, x1 = 0.588	0.081	–	–
[2], 283.15 K, x1 = 0.69	0.0825	–	–
[2], 283.15 K, x1 = 0.791	0.077	–	–
[2], 283.15 K, x1 = 0.892	0.0605	–	–
[2], 283.15 K, x1 = 0.95	0.0478	–	–
[2], 283.15 K, x1 = 0.97	0.0359	–	–
[2], 283.15 K, x1 = 0.99	0.0227	–	–
[2], 298.15 K, x1 = 0.049	0.0177	–	–
[2], 298.15 K, x1 = 0.096	0.037	–	–
[2], 298.15 K, x1 = 0.192	0.075	–	–
[2], 298.15 K, x1 = 0.286	0.11	–	–
[2], 298.15 K, x1 = 0.388	0.14	–	–
[2], 298.15 K, x1 = 0.488	0.16	–	–
[2], 298.15 K, x1 = 0.588	0.172	–	–
[2], 298.15 K, x1 = 0.69	0.174	–	–
[2], 298.15 K, x1 = 0.791	0.161	–	–
[2], 298.15 K, x1 = 0.892	0.126	–	–
[2], 298.15 K, x1 = 0.95	0.092	–	–
[2], 298.15 K, x1 = 0.97	0.0731	–	–
[2], 298.15 K, x1 = 0.99	0.0588	–	–
[2], 313.15 K, x1 = 0.049	0.0256	–	–
[2], 313.15 K, x1 = 0.096	0.0535	–	–
[2], 313.15 K, x1 = 0.192	0.106	–	–
[2], 313.15 K, x1 = 0.286	0.155	–	–
[2], 313.15 K, x1 = 0.388	0.194	–	–
[2], 313.15 K, x1 = 0.488	0.221	–	–
[2], 313.15 K, x1 = 0.588	0.236	–	–
[2], 313.15 K, x1 = 0.69	0.238	–	–
[2], 313.15 K, x1 = 0.791	0.222	–	–
[2], 313.15 K, x1 = 0.892	0.182	–	–
[2], 313.15 K, x1 = 0.95	0.128	–	–
[2], 313.15 K, x1 = 0.97	0.0954	–	–
[2], 313.15 K, x1 = 0.99	0.0327	–	–

— the NIST ThermoML archive (doi:10.1021/je060210c)
